Entries after “also recorded” stand apart in the source; their conditions may differ. Values belong to the molecule of their own block, whether it stands above or below them.
Experiments:
[1] = Hygroscopicity / water adsorption (thermogravimetry, TG-FTIR); format: physicochemical; conditions: for hygroscopicity / adsorbed water content: dihydrochloride; for adsorbed water content: water released on heating at 10° C./minute
Protocol: 1.05 gram of (6R)-L-erythro-tetrahydrobiopterin dihydrochloride are dissolved in 4.0 ml of bi-distilled water at 23±2° C. The solution is filtrated through a 0.22 μm millipore filtration unit and the filtrate is transferred into a 250 ml round flask. The solution in this flask is frozen by placing the flask into a bed with solid carbon dioxide at −78° C. The flask with the frozen content is then connected to a laboratory freeze dryer operating at a starting pressure of about 0.05 mbar. After about 20 hours the freeze drying is complete and the vacuum flask is disconnected from the freeze dryer and about 1.0 g of white, crystalline solid material is obtained. […] The sample begins to decompose above 200° C. TG-FTIR: Thermogravimetric measurements are carried out with a Netzsch Thermo-Micro-balance TG 209 coupled to a Bruker FTIR Spectrometer Vector 22 (sample pans with a pinhole, N2 atmosphere, heating rate 10 K/min).

[2] = Relative stability of the crystal forms as described; conditions: for relative stability of the crystal form: dihydrochloride
[3] = Phase equilibration / suspension stability tests in solvents, solid form by FT Raman and X-ray diffraction; format: physicochemical; conditions: room temperature
Protocol: 105 mg of polymorph A according to example A1 are suspended in 1.0 ml tertiary butyl methyl ether (TBME). The suspension is stirred under nitrogen atmosphere for about 18 hours at room temperature, filtrated and the white solid residue is then dried under air.
90 mg of polymorph A according to example A1 are suspended in 2.0 ml tetrahydrofuran (THF) and the resulting suspension is stirred in air for five days at room temperature, filtrated and the white solid residue is then dried under air.
The white suspension is stirred for 5 hours at room temperature, filtrated and dried under nitrogen at room temperature.
The white suspension is stirred over night at room temperature, filtrated and then dried under nitrogen at room temperature.
The white suspension is stirred over night at room temperature, filtrated and dried under nitrogen room temperature.
The white suspension is stirred in air over a weekend at room temperature, filtrated and then dried in air at room temperature. […] The white suspension is stirred for about 20 hours at room temperature, filtrated and dried in air at room temperature.
The suspension is stirred for about 20 hours at room temperature under nitrogen atmosphere, filtrated and then drying under nitrogen.
The suspension is stirred at room temperature under nitrogen atmosphere for about 23 hours, filtrated and dried in air.
105 mg of hydrate form D according to example B3 are suspended in 2.0 ml IPA. The suspension is stirred at room temperature for about 18 hours, filtered and the solid then dried in air at room temperature for about 4 hours.
Powder X-ray Diffraction (PXRD): PXRD is performed either on a Philips 1710 or on a Philips X'Pert powder X-ray diffractometer using CuKα radiation. D-spacings are calculated from the 2θ using the wavelength of the CuKα1 radiation of 1.54060 A. The X-ray tube was operated at a Voltage of 45 kV (or 40 kV with X'Pert Instrument), and a current of 45 mA (or 40 mA with X'Pert Instrument). A step size of 0.02°, and a counting time of 2.4 s per step is applied. Generally, 2θ values are within an error of ±0.1-0.2°. The experimental error on the d-spacing values is therefore dependent on the peak location.
Raman spectroscopy: FT-Raman spectra are recorded on a Bruker RFS 100 FT-Raman system with a near infrared Nd:YAG laser operating at 1064 nm and a liquid nitrogen-cooled germanium detector. For each sample, 64 scans with a resolution of 2 cm^−1 are accumulated. Generally; 300 mW laser power is used.

[4] = Storage of solid forms under defined relative humidity, resulting crystal form; format: physicochemical
Protocol: Hydrate form C is retained. 71 mg of polymorph form A according to example A1 are stored in air under 52% relative humidity at room temperature for 17 days. […] About 50 mg of polymorph form F according to example A26 are placed on an powder X-ray diffraction sample holder of 0.8 mm thickness (TTK type, obtained form Anton Pear GmbH, Graz, Austria). The prepared sample holder is placed in the closed sample chamber of a Philips X'Pert powder X-ray diffractometer and the sample chamber is purged with nitrogen and partially saturated with water vapour to a resulting relative humidity of about 52%. After an exposure time of about 24 hour a powder X-ray diffraction pattern is recorded.

[5] = 52% relative humidity, room temperature, 17 days, dihydrochloride

hygroscopicity ([1]; listed as polymorph J): slightly hygroscopic | relative humidity at which the form transforms back into form E [2]: above 75 % relative humidity
Compound: C[C@H](O)[C@H](O)[C@H]1CNc2nc(N)[nH]c(=O)c2N1.Cl.Cl [form J, (6R)-L-erythro-tetrahydrobiopterin dihydrochloride]

hygroscopicity ([1]; listed as polymorph K): slightly hygroscopic | adsorbed water content ([1]; listed as polymorph K): about 2.0 percent by weight
Compound: C[C@H](O)[C@H](O)[C@H]1CNc2nc(N)[nH]c(=O)c2N1.Cl.Cl [form K, (6R)-L-erythro-tetrahydrobiopterin dihydrochloride]
relative stability of the crystal form ([2]; listed as polymorph K): less stable than form B at higher temperatures

hygroscopicity [1]: slightly hygroscopic
Compound: C[C@H](O)[C@H](O)[C@H]1CNc2nc(N)[nH]c(=O)c2N1.Cl.Cl [form N, (6R)-L-erythro-tetrahydrobiopterin dihydrochloride]

hygroscopicity [1]: slightly hygroscopic
Compound: C[C@H](O)[C@H](O)[C@H]1CNc2nc(N)[nH]c(=O)c2N1.Cl.Cl [form M, (6R)-L-erythro-tetrahydrobiopterin dihydrochloride]

hygroscopicity [1]: hygroscopic
Compound: C[C@H](O)[C@H](O)[C@H]1CNc2nc(N)[nH]c(=O)c2N1.Cl.Cl [form I, (6R)-L-erythro-tetrahydrobiopterin dihydrochloride]

The next lines start with the molecule.

Compound: C[C@H](O)[C@H](O)[C@H]1CNc2nc(N)[nH]c(=O)c2N1.Cl.Cl [form B, (6R)-L-erythro-tetrahydrobiopterin dihydrochloride]
crystal form after suspension stirring ([3]; 2-Propanol, over night, nitrogen): polymorph form B | crystal form after suspension stirring ([3]; EtOH in air, over a weekend): slightly yellow crystalline solid, polymorph form B | crystal form after suspension stirring ([3]; EtOH, over night, nitrogen): polymorph form B | crystal form after suspension stirring ([3]; THF, about 20 hours, nitrogen (slightly yellow solid from the EtOH/air test)): slightly yellow crystalline solid, polymorph form B | crystal form after suspension stirring ([3]; acetone, over night, nitrogen): polymorph form B | crystal form after suspension stirring ([3]; acetonitrile containing 2% by weight of water, about 20 hours, nitrogen): polymorph form B | crystal form after suspension stirring ([3]; ethyl acetate containing 2% by weight of water, about 23 hours, nitrogen): polymorph form B | crystal form after suspension stirring ([3]; methanol, 5 hours, nitrogen): polymorph form B | crystal form after storage ([4]; open container under air, 75% relative humidity, 40° C., 5 days): still polymorph form B | hygroscopicity ([1]; listed as Polymorph B): slightly hygroscopic

Compound: C[C@H](O)[C@H](O)[C@H]1CNc2nc(N)[nH]c(=O)c2N1.Cl.Cl [form F, (6R)-L-erythro-tetrahydrobiopterin dihydrochloride]
crystal form after exposure to humidity ([4]; nitrogen with water vapour, relative humidity about 52%, about 24 hour): crystalline form O | hygroscopicity ([1]; listed as polymorph F): slightly hygroscopic | adsorbed water content ([1]; listed as polymorph F): about 3 percent by weight

Compound: C[C@H](O)[C@H](O)[C@H]1CNc2nc(N)[nH]c(=O)c2N1.Cl.Cl [form H, (6R)-L-erythro-tetrahydrobiopterin dihydrochloride]
hygroscopicity [1]: hygroscopic

Compound: C[C@H](O)[C@H](O)[C@H]1CNc2nc(N)[nH]c(=O)c2N1.Cl.Cl [form A, (6R)-L-erythro-tetrahydrobiopterin dihydrochloride]
crystal form after suspension stirring ([3]; tertiary butyl methyl ether, about 18 hours, nitrogen, dihydrochloride): unchanged polymorph form A | crystal form after suspension stirring ([3]; tertiary butyl methyl ether, about 18 hours, nitrogen, listed as polymorph A, dihydrochloride): essentially still corresponds to form A | crystal form after suspension stirring ([3]; tetrahydrofuran, five days, dihydrochloride): unchanged polymorph form A | crystal form after suspension stirring ([3]; tetrahydrofuran, five days, listed as polymorph A, dihydrochloride): still corresponds to form A | crystal form after storage [4, 5]: corresponds to hydrate form E | hygroscopicity ([1]; listed as polymorph A): slightly hygroscopic | temperature above which the sample begins to decompose ([1]; thermogravimetry, heating rate 10° C./minute): above 200 °C | adsorbed water content ([1]; listed as polymorph A): about 3 percent by weight

Compound: C[C@H](O)[C@H](O)[C@H]1CNc2nc(N)[nH]c(=O)c2N1.Cl.Cl [form D, (6R)-L-erythro-tetrahydrobiopterin dihydrochloride]
crystal form after suspension stirring ([3]; IPA, about 18 hours): unchanged hydrate form D | hygroscopicity [1]: slightly hygroscopic | stability on exposure to air humidity ([2]; ambient temperature): stable | relative stability of the crystal form [2]: most stable one under the known hydrates at ambient temperatures and a relative humidity of less than 70%; also recorded: most stable form under the hydrates | relative stability of the crystal form ([2]; listed as hydrate D): much higher stability than form C

Compound: C[C@H](O)[C@H](O)[C@H]1CNc2nc(N)[nH]c(=O)c2N1.Cl.Cl [form E, (6R)-L-erythro-tetrahydrobiopterin dihydrochloride]
crystal form after storage [4, 5]: retained | hygroscopicity [1]: non-hygroscopic

Compound: C[C@H](O)[C@H](O)[C@H]1CNc2nc(N)[nH]c(=O)c2N1.Cl.Cl [form O, (6R)-L-erythro-tetrahydrobiopterin dihydrochloride]
relative stability of the crystal form [2]: more stable than form F under ambient temperature and humidity conditions

Compound: C[C@H](O)[C@H](O)[C@H]1CNc2nc(N)[nH]c(=O)c2N1.Cl.Cl [form G, (6R)-L-erythro-tetrahydrobiopterin dihydrochloride]
hygroscopicity [1]: hygroscopic

Compound: C[C@H](O)[C@H](O)[C@H]1CNc2nc(N)[nH]c(=O)c2N1.Cl.Cl [form C, (6R)-L-erythro-tetrahydrobiopterin dihydrochloride]
crystal form after storage [4, 5]: retained | hygroscopicity [1]: slightly hygroscopic | conversion of the crystal form ([2]; about 40° C. in air and lower relative humidity): easily converted to polymorph form B
